Test results from ChEMBL document CHEMBL5465560, “Selectivity Literature for EUbOPEN Chemogenomic Library” (2024).
Values belong to the compound of their own block, whether it stands above or below them.

Legend:
[1] = target: STE20-like serine/threonine-protein kinase (Homo sapiens, UniProt Q9H2G2); assay: Selectivity interaction (KinomeScan (DiscoverX)) EUB0000666a SLK; conditions: at 10 µM
[2] = target: Cholecystokinin receptor type A (Homo sapiens, UniProt P32238); assay: Selectivity interaction (Cholecystokinin A receptor binding assay, human recombinant ) EUB0000877a CCKAR
[3] = target: Mitogen-activated protein kinase 6 (Homo sapiens) (UniProt Q16659); conditions: at 10 µM
[4] = target: MAP/microtubule affinity-regulating kinase 3 (Homo sapiens) (UniProt P27448); assay: Selectivity interaction (ActivX KiNativ screen (kinase selectivity in THP-1 cell lysates)) EUB0000639a MARK3; assay type: subcellular; conditions: lysate, at 0.01 µM
[5] = target: Serine/threonine-protein kinase SMG1 (Homo sapiens) (UniProt Q96Q15); assay: Selectivity interaction (ActivX KiNativ screen (kinase selectivity in THP-1 cell lysates)) EUB0000639a SMG1; assay type: subcellular; conditions: lysate, at 0.01 µM
[6] = test system: Fibroblast growth factor receptor 3 (Homo sapiens), P22607 [G697C]; assay: (§1) Selectivity interaction (KinomeScan (DiscoverX)) EUB0000595a FGFR3; conditions: at 10 µM
[7] = target: Fibroblast growth factor receptor 3 (Homo sapiens, UniProt P22607); assay: as §1; conditions: at 10 µM
[8] = target: T1, Rhodopsin kinase GRK1 (Homo sapiens) (UniProt Q15835); assay: Selectivity interaction (KinomeScan (DiscoverX)) EUB0001049a GRK1; conditions: at 1 µM
T1 sequence (whole entry): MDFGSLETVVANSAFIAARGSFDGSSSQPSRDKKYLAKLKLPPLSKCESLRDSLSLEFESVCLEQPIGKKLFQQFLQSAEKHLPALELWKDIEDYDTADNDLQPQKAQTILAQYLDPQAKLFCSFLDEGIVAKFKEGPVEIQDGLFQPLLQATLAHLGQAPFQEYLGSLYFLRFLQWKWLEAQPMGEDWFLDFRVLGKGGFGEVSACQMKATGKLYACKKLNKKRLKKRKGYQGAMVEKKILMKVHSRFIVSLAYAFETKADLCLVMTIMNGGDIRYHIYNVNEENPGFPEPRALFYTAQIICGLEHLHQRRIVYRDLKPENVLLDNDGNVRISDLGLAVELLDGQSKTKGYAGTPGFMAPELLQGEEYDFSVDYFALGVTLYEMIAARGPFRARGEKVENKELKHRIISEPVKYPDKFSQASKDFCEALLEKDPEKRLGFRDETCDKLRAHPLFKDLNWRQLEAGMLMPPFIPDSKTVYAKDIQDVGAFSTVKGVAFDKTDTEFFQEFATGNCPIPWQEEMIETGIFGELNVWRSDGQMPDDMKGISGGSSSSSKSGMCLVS

[9] = target: Phosphatidylinositol 4-kinase beta (Homo sapiens, UniProt Q9UBF8); assay: Selectivity interaction (Ambit KINOMEscan and KiNATiv profiling in Jurkat cells) EUB0000090b PI4KB; assay type: cell-based; conditions: at 1 µM
[10] = target: Dual specificity protein kinase CLK3 (Homo sapiens, UniProt P49761); assay: Selectivity interaction (Kinase panel (KiNativ target engagement assay in Jurkat cells)) EUB0001635a CLK3; assay type: cell-based; conditions: Selectivity number of off-targets 0.0, Selectivity number of targets 233.0, Source Knowledge https://www.sciencedirect.com/science/article/pii/S2451945619300674?via%3Dihub, at 1 µM
[11] = target: T2, Ephrin type-A receptor 3 (Homo sapiens) (UniProt P29320); assay: Selectivity interaction (KinomeScan (DiscoverX)) EUB0000092b EPHA3; conditions: at 10 µM
T2 sequence (whole entry): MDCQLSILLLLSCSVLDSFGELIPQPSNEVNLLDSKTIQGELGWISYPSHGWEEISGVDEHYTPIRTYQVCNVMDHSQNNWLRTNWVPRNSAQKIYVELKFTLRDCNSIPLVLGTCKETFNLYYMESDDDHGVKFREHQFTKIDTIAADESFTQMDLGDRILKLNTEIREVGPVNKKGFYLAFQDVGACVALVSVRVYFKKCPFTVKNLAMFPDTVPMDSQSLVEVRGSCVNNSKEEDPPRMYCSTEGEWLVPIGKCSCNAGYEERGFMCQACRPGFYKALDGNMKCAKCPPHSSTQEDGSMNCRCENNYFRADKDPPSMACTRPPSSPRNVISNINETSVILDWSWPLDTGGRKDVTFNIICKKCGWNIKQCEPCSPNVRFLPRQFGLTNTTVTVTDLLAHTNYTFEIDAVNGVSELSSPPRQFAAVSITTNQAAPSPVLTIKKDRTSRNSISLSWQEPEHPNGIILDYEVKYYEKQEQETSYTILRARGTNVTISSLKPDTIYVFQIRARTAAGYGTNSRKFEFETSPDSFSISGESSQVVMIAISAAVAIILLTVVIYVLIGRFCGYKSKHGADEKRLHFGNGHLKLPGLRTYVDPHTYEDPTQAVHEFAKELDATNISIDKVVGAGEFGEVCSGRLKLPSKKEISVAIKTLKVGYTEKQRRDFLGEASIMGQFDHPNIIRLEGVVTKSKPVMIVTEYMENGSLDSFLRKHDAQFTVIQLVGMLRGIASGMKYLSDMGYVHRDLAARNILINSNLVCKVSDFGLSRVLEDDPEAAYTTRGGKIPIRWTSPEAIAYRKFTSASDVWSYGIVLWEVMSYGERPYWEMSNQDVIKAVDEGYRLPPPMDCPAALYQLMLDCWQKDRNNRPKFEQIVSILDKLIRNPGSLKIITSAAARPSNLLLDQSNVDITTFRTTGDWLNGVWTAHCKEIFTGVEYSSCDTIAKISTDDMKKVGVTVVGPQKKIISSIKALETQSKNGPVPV

[12] = target: Ribosomal protein S6 kinase alpha-6 (Homo sapiens, UniProt Q9UK32); assay: Selectivity interaction (KinomeScan (DiscoverX)) EUB0000092b RPS6KA6; conditions: at 10 µM
[13] = target: ALK tyrosine kinase receptor (Homo sapiens, UniProt Q9UM73); assay: Selectivity interaction (KinomeScan (DiscoverX)) EUB0001619a ALK; conditions: at 1 µM
ALK tyrosine kinase receptor, sequence (Q9UM73 19-1620 limits assumed): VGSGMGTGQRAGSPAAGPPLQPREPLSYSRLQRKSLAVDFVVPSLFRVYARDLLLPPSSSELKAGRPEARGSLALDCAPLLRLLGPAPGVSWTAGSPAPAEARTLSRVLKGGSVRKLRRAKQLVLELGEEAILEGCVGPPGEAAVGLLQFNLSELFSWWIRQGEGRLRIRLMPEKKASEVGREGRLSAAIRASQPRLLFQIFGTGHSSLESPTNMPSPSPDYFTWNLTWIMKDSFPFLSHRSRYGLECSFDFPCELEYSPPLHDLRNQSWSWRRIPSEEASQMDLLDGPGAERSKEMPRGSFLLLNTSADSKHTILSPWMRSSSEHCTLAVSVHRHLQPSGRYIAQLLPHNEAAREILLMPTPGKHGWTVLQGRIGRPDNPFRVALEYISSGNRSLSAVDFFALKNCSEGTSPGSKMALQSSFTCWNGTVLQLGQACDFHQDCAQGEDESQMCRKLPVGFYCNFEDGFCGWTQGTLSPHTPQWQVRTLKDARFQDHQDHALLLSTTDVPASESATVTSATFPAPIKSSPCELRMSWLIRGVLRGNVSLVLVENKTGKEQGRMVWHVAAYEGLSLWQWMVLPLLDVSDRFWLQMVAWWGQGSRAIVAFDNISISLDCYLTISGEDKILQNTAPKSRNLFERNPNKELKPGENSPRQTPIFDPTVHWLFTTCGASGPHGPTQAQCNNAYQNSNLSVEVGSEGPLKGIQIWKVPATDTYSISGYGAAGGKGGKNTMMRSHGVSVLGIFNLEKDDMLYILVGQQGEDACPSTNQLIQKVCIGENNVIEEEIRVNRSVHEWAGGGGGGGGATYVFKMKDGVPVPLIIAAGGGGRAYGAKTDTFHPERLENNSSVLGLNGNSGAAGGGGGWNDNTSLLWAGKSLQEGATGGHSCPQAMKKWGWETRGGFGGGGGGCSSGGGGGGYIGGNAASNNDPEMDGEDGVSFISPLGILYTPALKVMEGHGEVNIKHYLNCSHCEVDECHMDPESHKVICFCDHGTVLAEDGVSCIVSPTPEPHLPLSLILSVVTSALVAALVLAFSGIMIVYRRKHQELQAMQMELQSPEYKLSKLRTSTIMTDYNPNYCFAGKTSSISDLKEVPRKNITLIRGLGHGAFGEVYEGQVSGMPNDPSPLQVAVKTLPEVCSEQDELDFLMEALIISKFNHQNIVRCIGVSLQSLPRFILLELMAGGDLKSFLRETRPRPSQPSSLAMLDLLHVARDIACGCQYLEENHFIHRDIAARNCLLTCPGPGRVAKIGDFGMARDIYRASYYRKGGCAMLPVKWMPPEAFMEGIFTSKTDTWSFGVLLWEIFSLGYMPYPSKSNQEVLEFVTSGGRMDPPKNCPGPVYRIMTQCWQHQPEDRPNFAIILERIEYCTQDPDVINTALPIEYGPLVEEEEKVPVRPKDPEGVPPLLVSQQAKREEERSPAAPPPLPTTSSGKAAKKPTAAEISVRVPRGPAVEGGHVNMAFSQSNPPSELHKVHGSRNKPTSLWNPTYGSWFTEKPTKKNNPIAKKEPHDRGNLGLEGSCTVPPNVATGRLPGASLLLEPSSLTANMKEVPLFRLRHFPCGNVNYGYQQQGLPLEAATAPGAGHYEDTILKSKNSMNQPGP

Dual specificity protein kinase CLK3, sequence (P49761 whole entry, looked up): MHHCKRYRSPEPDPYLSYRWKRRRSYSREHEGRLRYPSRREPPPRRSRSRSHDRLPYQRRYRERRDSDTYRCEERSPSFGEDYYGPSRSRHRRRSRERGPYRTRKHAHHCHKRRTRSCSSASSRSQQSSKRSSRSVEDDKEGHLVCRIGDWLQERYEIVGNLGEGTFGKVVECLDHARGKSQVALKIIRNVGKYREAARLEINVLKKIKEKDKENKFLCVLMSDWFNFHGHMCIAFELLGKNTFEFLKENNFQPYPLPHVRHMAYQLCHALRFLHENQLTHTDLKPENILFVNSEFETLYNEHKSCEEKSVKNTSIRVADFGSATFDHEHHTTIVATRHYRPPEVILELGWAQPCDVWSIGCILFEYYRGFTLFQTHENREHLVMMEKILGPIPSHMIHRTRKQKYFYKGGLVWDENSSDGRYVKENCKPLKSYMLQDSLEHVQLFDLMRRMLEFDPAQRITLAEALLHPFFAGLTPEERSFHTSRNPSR
Ribosomal protein S6 kinase alpha-6, sequence (Q9UK32 whole entry): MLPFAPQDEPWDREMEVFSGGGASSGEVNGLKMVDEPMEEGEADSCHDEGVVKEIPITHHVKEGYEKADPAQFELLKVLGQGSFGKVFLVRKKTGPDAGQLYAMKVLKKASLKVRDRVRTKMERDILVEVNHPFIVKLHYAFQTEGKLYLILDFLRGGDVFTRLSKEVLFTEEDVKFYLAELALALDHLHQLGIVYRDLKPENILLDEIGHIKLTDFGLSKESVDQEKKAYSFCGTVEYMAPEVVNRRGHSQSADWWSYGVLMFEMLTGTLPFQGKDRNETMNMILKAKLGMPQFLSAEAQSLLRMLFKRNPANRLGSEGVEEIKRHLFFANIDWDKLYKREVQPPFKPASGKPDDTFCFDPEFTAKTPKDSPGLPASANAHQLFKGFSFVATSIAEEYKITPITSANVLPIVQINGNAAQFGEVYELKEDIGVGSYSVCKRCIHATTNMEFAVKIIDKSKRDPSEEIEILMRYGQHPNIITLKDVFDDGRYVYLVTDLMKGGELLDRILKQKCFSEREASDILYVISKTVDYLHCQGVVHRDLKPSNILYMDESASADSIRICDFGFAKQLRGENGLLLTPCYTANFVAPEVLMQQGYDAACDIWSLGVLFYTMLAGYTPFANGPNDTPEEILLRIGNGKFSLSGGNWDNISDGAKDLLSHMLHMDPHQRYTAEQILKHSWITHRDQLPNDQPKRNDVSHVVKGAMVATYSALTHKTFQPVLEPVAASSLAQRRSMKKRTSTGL
STE20-like serine/threonine-protein kinase, sequence (Q9H2G2 whole entry, looked up): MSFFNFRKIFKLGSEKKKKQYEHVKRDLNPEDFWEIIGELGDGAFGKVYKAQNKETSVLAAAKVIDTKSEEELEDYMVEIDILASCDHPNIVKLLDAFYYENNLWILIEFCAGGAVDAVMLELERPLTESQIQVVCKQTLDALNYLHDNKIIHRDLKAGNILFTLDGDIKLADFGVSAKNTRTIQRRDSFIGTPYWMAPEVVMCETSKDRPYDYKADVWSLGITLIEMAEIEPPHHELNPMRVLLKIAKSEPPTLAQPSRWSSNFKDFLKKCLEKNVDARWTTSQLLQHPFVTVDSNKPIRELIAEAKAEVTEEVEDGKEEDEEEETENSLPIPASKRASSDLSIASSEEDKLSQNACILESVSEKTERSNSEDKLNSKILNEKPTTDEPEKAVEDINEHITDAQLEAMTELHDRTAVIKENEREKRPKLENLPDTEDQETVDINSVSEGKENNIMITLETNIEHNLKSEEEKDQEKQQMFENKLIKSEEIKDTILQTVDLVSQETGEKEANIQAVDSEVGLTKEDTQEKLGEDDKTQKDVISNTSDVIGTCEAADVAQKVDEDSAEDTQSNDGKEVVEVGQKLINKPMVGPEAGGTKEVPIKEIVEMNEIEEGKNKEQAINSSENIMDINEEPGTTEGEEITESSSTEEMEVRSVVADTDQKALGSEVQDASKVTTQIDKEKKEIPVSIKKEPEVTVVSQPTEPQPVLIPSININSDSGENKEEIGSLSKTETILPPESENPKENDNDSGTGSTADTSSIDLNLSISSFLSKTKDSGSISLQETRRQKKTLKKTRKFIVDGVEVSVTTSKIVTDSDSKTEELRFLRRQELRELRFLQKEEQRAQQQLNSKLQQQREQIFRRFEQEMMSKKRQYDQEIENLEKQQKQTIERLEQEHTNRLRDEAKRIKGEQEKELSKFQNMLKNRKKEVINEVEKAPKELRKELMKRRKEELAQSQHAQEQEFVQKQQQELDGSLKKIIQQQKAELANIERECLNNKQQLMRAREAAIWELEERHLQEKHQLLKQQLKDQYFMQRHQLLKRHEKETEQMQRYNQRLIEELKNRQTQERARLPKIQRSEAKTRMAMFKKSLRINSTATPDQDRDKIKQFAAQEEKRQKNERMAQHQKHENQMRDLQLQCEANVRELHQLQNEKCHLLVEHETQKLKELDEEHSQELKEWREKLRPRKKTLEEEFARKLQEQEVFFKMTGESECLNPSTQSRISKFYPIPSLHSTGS
Phosphatidylinositol 4-kinase beta, sequence (Q9UBF8 2-816 limits assumed): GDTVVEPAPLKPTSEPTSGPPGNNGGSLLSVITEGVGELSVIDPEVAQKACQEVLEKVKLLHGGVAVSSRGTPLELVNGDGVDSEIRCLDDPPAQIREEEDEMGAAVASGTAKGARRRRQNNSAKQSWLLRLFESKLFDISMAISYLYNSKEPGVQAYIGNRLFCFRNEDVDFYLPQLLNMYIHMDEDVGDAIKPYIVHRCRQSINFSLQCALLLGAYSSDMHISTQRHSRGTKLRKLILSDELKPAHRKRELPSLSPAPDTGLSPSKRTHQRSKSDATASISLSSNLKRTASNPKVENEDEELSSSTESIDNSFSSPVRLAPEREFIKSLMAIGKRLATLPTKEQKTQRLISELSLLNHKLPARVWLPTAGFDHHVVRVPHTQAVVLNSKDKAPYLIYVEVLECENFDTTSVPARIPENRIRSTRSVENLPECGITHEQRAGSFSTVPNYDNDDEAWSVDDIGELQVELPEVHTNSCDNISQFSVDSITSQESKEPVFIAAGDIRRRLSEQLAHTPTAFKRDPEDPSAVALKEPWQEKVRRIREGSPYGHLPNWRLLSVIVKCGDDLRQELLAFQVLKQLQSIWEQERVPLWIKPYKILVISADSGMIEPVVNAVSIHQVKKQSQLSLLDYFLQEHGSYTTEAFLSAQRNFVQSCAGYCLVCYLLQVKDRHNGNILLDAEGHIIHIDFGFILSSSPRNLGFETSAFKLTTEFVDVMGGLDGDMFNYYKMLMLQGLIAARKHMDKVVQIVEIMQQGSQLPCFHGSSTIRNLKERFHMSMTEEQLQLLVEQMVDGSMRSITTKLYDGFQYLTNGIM

Structure (SMILES): O=C(NOC[C@H](O)CO)c1ccc(F)c(F)c1Nc1ccc(I)cc1F
% of control [1]: 93%

IC50 [2]: > 30 µM
Structure (SMILES): CCC(=O)N1CC[C@H](Nc2ncnc3c2CN(c2cnc(OC)c(C(F)(F)F)c2)CC3)C1 [LENIOLISIB]

% of control [3]: 100%
Structure (SMILES): CCN(CC)CCCCNc1ncc2cc(-c3cc(OC)cc(OC)c3)c(NC(=O)NC(C)(C)C)nc2n1

% of inhibition [4]: 10.4%
% of inhibition [5]: -2.1%
Structure (SMILES): CC[C@@H]1[C@H](F)C(=O)N[C@@H]1COc1nccc2cc(C(N)=O)c(OC)cc12 [ZIMLOVISERTIB]

Structure (SMILES): COCC(=O)NC/C=C/c1ccc2ncnc(Nc3ccc(Oc4ccc(C)nc4)c(C)c3)c2c1 [CP-724714]
% of control [6]: 90%
% of control [7]: 100%

Structure (SMILES): COc1cc(Nc2nc(C)cc(-c3cnn4nc(OC)ccc34)n2)cc(C(F)(F)F)c1
% of control [8]: 75%

Structure (SMILES): CN(C)C/C=C/C(=O)Nc1ccc(C(=O)N2CCCC(Nc3ncc(Cl)c(-c4c[nH]c5ccccc45)n3)C2)cc1 (stereo not drawn)
% of control [9]: 88%

Structure (SMILES): C=CC(=O)Nc1ccc(C(=O)Nc2[nH]nc3c2CN(C(=O)N[C@H](CN(C)C)c2ccccc2)C3(C)C)cc1
% of engagement [10]: 4.3%

Structure (SMILES): CCC(=O)N1CCN(c2ccc(-n3c(=O)ccc4cnc5ccc(-c6cnc7ccccc7c6)cc5c43)cc2C(F)(F)F)CC1
% of control [11]: 70%
% of control [12]: 66%

Structure (SMILES): N#Cc1cccc(-c2c[nH]c3ncnc(N4CCOCC4)c23)c1
% of control [13]: 100%
